According to patent publication US12305171B2, “Compositions and methods for treating cancer” (bioAffinity Technologies, Inc., priority 2018, dated 2025):
Like-named read-outs stand apart in the source and are kept apart here.

B1: TCN2-Cbl: complex of transcobalamin 2 (TCN2) with cobalamin (vitamin B12) (protein, UniProt P20062 19-427, looked up)
Transcobalamin-2: EMCEIPEMDSHLVEKLGQHLLPWMDRLSLEHLNPSIYVGLRLSSLQAGTKEDLYLHSLKLGYQQCLLGSAFSEDDGDCQGKPSMGQLALYLLALRANCEFVRGHKGDRLVSQLKWFLEDEKRAIGHDHKGHPHTSYYQYGLGILALCLHQKRVHDSVVDKLLYAVEPFHQGHHSVDTAAMAGLAFTCLKRSNFNPGRRQRITMAIRTVREEILKAQTPEGHFGNVYSTPLALQFLMTSPMRGAELGTACLKARVALLASLQDGAFQNALMISQLLPVLNHKTYIDLIFPDCLAPRVMLEPAAETIPQTQEIISVTLQVLSLLPPYRQSISVLAGSTVEDVLKKAHELGGFTYETQASLSGPYLTSVMGKAAGEREFWQLLRDPNTPLLQGIADYRPKDGETIELRLVSW
modifications: complexed with cobalamin
B2: TCN1: plasma glycoprotein chaperone of cobalamin, sialylated and desialylated forms (protein, UniProt P20061 24-433, looked up)
Transcobalamin-1: EICEVSEENYIRLKPLLNTMIQSNYNRGTSAVNVVLSLKLVGIQIQTLMQKMIQQIKYNVKSRLSDVSSGELALIILALGVCRNAEENLIYDYHLIDKLENKFQAEIENMEAHNGTPLTNYYQLSLDVLALCLFNGNYSTAEVVNHFTPENKNYYFGSQFSVDTGAMAVLALTCVKKSLINGQIKADEGSLKNISIYTKSLVEKILSEKKENGLIGNTFSTGEAMQALFVSSDYYNENDWNCQQTLNTVLTEISQGAFSNPNAAAQVLPALMGKTFLDINKDSSCVSASGNFNISADEPITVTPPDSQSYISVNYSVRINETYFTNVTVLNGSVFLSVMEKAQKMNDTIFGFTMEERSWGPYITCIQGLCANNNDRTYWELLSGGEPLSQGAGSYVVRNGENLEVRWSKY

Legend:
GM00701 = test: lentiviral shRNA knockdown of CD320 and LRP2, cell growth observation; type: cell-based; parameters: key: +++: cells unaffected compared to shSCR (control); ++: cells modestly affected compared to shSCR (control); +: cells significantly affected compared to shSCR (control); 0: vast majority of cells killed compared to shSCR (control); details: GM00701, normal cells
From the text: (§1) Mechanistic investigations into the selectivity of porphyrin uptake by cancer cells led to several nonobvious compounds and methods of using the compound(s). It was discovered that the knockdown of the expression of either CD320 gene or LRP2 gene or the simultaneous knockdown of the expression of CD320 gene and LRP2 gene caused cell death or inhibition of cell growth in a panel of lung cancer cell lines, compared to normal fibroblasts. The experimental outline is illustrated in FIG. 1. In these experiments, cells were plated on day 0. The next day (day 1), virus particles encoding short hairpin RNAs (shRNAs) directed to the CD320 gene and the LRP2 gene or an irrelevant shRNA control were added to the cell culture together with protamine sulfate, a reagent that facilitates cell entry of the virus particles.
(§2) FIG. 1 illustrates an experimental design for knocking down CD320 and LRP2 in a cell. Cells were plated on day 0. The next day (day 1), virus particles encoding short hairpin RNAs (shRNAs) directed at the CD320 and LRP2 mRNA or a non-targeting shRNA control were added to the cell culture together with protamine sulfate, a reagent that facilitates cell entry of the virus particles. […] Each shRNA coding sequence was also combined with a unique drug resistance gene, which would allow for selecting those cells that had taken up the shRNA; cells that had not taken up the shRNA would not survive. On day 2, drug selection was started. On day 3, the cells were harvested and plated in a new dish. Only the cells with a drug resistance gene, i.e., those cells that had taken up shRNA virus particles would survive this re-plating procedure. From day 4 on, each culture was closely observed for cell growth. Cells infected with the non-targeting negative control shRNA continued growing—data not shown.
(§3) The Each vector that carried a shRNA coding sequence also contained a unique drug resistance gene which would allow for selecting those cells that had taken up the shRNA as those cells that had not taken up the shRNA having the unique drug resistance gene would not survive. On day 2, drug selection was started. On day 3, the cells were harvested and plated in a new dish. Only the cells with a drug resistance gene, i.e., those cells that had taken up shRNA virus particles would survive this re-plating procedure. From day 4 on, each culture was closely observed for cell growth. The cells that were infected with the irrelevant control shRNA kept on growing as expected (since the shRNA was essentially a non-functional shRNA)—data not shown.
(§4) Additional cancer cell lines were also treated with the compounds described herein to determine whether cancer cell lines were more susceptible to growth inhibition and toxicity as compared to non-cancer cells of the same origin. Cell lines from skin, prostate, and brain cancers were screened similarly to the experimental outline in FIG. 1. Table 3 summarizes the effects of simultaneous knockdown of CD320 and LRP2 in cancer and normal cells.

H1993 = test: as above; type: cell-based; parameters: key: +++: cells unaffected compared to shSCR (control); ++: cells modestly affected compared to shSCR (control); +: cells significantly affected compared to shSCR (control); 0: vast majority of cells killed compared to shSCR (control); details: H1993, lung cells
From the text: as §1, §2, §3, §4

H157 = test: as above; type: cell-based; parameters: key: +++: cells unaffected compared to shSCR (control); ++: cells modestly affected compared to shSCR (control); +: cells significantly affected compared to shSCR (control); 0: vast majority of cells killed compared to shSCR (control); details: H157, lung cells
From the text: as §1, §2, §3, §4

HCC15 = test: as above; type: cell-based; parameters: key: +++: cells unaffected compared to shSCR (control); ++: cells modestly affected compared to shSCR (control); +: cells significantly affected compared to shSCR (control); 0: vast majority of cells killed compared to shSCR (control); details: HCC15, lung cells
From the text: as §1, §2, §3, §4

T98G = test: as above; type: cell-based; parameters: key: +++: cells unaffected compared to shSCR (control); ++: cells modestly affected compared to shSCR (control); +: cells significantly affected compared to shSCR (control); 0: vast majority of cells killed compared to shSCR (control); details: glioblastoma
From the text: as §1, §2, §3, §4

H358 = test: as above; type: cell-based; parameters: key: +++: cells unaffected compared to shSCR (control); ++: cells modestly affected compared to shSCR (control); +: cells significantly affected compared to shSCR (control); 0: vast majority of cells killed compared to shSCR (control); details: H358, lung cells
From the text: as §1, §2, §3, §4

A172 = test: as above; type: cell-based; parameters: key: +++: cells unaffected compared to shSCR (control); ++: cells modestly affected compared to shSCR (control); +: cells significantly affected compared to shSCR (control); 0: vast majority of cells killed compared to shSCR (control); details: A172, glioblastoma
From the text: as §1, §2, §3, §4

LncAP = test: as above; type: cell-based; parameters: key: +++: cells unaffected compared to shSCR (control); ++: cells modestly affected compared to shSCR (control); +: cells significantly affected compared to shSCR (control); 0: vast majority of cells killed compared to shSCR (control); details: prostate cells
From the text: as §1, §2, §3, §4

MDA-MB-4353 = test: as above; type: cell-based; parameters: key: +++: cells unaffected compared to shSCR (control); ++: cells modestly affected compared to shSCR (control); +: cells significantly affected compared to shSCR (control); 0: vast majority of cells killed compared to shSCR (control); details: MDA-MB-4353, melanoma cells
From the text: as §1, §2, §3, §4

DU-145 = test: as above; type: cell-based; parameters: key: +++: cells unaffected compared to shSCR (control); ++: cells modestly affected compared to shSCR (control); +: cells significantly affected compared to shSCR (control); 0: vast majority of cells killed compared to shSCR (control); details: DU-145, prostate cells
From the text: as §1, §2, §3, §4

U343 = test: as above; type: cell-based; parameters: key: +++: cells unaffected compared to shSCR (control); ++: cells modestly affected compared to shSCR (control); +: cells significantly affected compared to shSCR (control); 0: vast majority of cells killed compared to shSCR (control); details: U343, glioblastoma
From the text: as §1, §2, §3, §4

U251MG = test: as above; type: cell-based; parameters: key: +++: cells unaffected compared to shSCR (control); ++: cells modestly affected compared to shSCR (control); +: cells significantly affected compared to shSCR (control); 0: vast majority of cells killed compared to shSCR (control); details: glioblastoma
From the text: as §1, §2, §3, §4

PC3 = test: as above; type: cell-based; parameters: key: +++: cells unaffected compared to shSCR (control); ++: cells modestly affected compared to shSCR (control); +: cells significantly affected compared to shSCR (control); 0: vast majority of cells killed compared to shSCR (control); details: PC3, prostate cells
From the text: as §1, §2, §3, §4

GM05659 fibroblasts = test: as above; type: cell-based; parameters: key: +++: cells unaffected compared to shSCR (control); ++: cells modestly affected compared to shSCR (control); +: cells significantly affected compared to shSCR (control); 0: vast majority of cells killed compared to shSCR (control); details: GM05659, normal cells
From the text: as §1, §2
FIGS. 2 A-C illustrates sensitivity of cancer cell lines to knockdown of CD320 and LRP2. […] The fields of cells in FIG. 2A were counted and quantified and illustrated in FIG. 2B. […]

[1] = cited from earlier work

Molecule	cells affected compared to shSCR (control) (GM00701)	cells affected compared to shSCR (control) (H1993)	cells affected compared to shSCR (control) (H157)	cells affected compared to shSCR (control) (HCC15)	cells affected compared to shSCR (control) (T98G)	cells affected compared to shSCR (control) (H358)	cells affected compared to shSCR (control) (A172)	cells affected compared to shSCR (control) (LncAP)	cells affected compared to shSCR (control) (MDA-MB-4353)	cells affected compared to shSCR (control) (DU-145)	cells affected compared to shSCR (control) (U343)	cells affected compared to shSCR (control) (U251MG)	cells affected compared to shSCR (control) (PC3)	cells affected compared to shSCR (control) (GM05659 fibroblasts)	plasma half-life ([1]; in vivo)	plasma half-life ([1]; desialylated, less abundant form)	plasma half-life ([1]; sialylated, most abundant form)
shCD320: lentiviral shRNA targeting CD320 (NM_016579.3), location 1006-1026; SEQ ID NO. 943/944 (sense CCCTCAGAGACCTGAGCTCTT; antisense AAGAGCTCAGGTCTCTGAGGG) [lentiviral shRNA targeting CD320 (NM_016579.3), location 1006-1026; 943/944]	++	++	+	+	+++	++	+	++	++	++	+++	+	+++	+++	–	–	–
shLRP2: lentiviral shRNA targeting LRP2 (NM_004525.2), location 2800-2820; SEQ ID NO. 945/946 (sense CCTGTAATAAACACTACTCTT; antisense AAGAGTAGTGTTTATTACAGG) [lentiviral shRNA targeting LRP2 (NM_004525.2), location 2800-2820; 945/946]	+++	++	++	+	++	++	+	++	+	+	++	++	++	+++	–	–	–
shSCR: non-targeting control shRNA in lentiviral vector; SEQ ID NO. 941/942 [reference compound]	+++	+++	+++	+++	+++	+++	+++	+++	+++	+++	+++	+++	+++	+++	–	–	–
B1	–	–	–	–	–	–	–	–	–	–	–	–	–	–	1 to 15 h	–	–
B2	–	–	–	–	–	–	–	–	–	–	–	–	–	–	–	a few minutes	about 10 days
